Data as given in patent US10925282B2, “Enhanced kill of microorganisms” (CONOCOPHILLIPS COMPANY, priority 2017, dated 2021).
Read-outs that look alike come from different tables or passages of the source.

How the values were obtained:
[1] = tested on: Barnett sulfate reducing bacteria (SRB) culture
[2] = tested on: freshwater denitrifying culture; settings: 20 mM; 30-minute exposure; cited from earlier work
[3] = 1 mM nitrite, approximately 24 hours

In the case of `O=NO` [nitrite], the cATP concentration [1, 3] is reported as “below 1000 picograms per mL”, the “reduction in cATP concentrations” value [1, 3] is reported as > 90% and the “time required to reach a cATP concentration below 1000 picograms per mL” value ([1]; 1 mM nitrite, initial microbial equivalency 1.0×10^7 cells/mL, 30° C.) is reported as “Approximately 24 hours”. For the same molecule, the “reduction in cATP concentrations” value ([1]; 2 mM nitrite, same time period (approximately 24 hours)) was > 99%.

For `[O]=[W](=[O])([O-])[O-]` [tungstate], the “reduction of ATP levels” value [2] is listed as 41%.
